Laboratory results reported in patent publication US20260285816A1, “Piperazinyl-Modified Quinazolinyl-Aryl Urea Derivative, And Preparation Method And Use Thereof” (Guangxi Normal University, priority 2025, published 2026).
Counter-ions that a name gives are not always drawn. Like-named read-outs stand apart in the source and are kept apart here.

Legend:
143B cells = assay: CCK-8 anti-proliferative assay, 143B; type: cell-based, human; conditions: Homo sapiens, 143B
How it was run: (§1)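 Compound was added at final concentrations of 1 to 30 μM, in triplicate, to cells at 70% confluence (5,000 per well seeded). After co-incubation, CCK-8 was added for 1–4 h depending on the cell line. Inhibition from OD450 relative to untreated cells gave IC50.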

MG-63 cells = assay: CCK-8 anti-proliferative assay, MG-63; type: cell-based, human; conditions: Homo sapiens, MG-63
How it was run: as §1

human osteosarcoma 143B = assay: 143B tumor-bearing nude mouse model; type: in vivo, nude mice; conditions: 40 mg/kg oral gavage, every 2 d, 42 d
Protocol: Experimental method: bladder cancer J82 cells in logarithmic growth phase were trypsinized, collected, and then centrifuged, and resuspended in serum-free DMEM medium after discarding an original medium. Cell density was adjusted, and 0.2 mL cell suspension was subcutaneously inoculated into 5-week-old BALB/c-nu mice (sex-balanced, 18-20 g) under a laminar flow clean bench. Post-inoculation, bleeding at injection sites was monitored. When tumors reached 50-80 mm^3, nude mice with good tumor growth status were randomized into 5 groups (n=6/group) for intraperitoneal administration. Tumor volume and body weight were recorded on Day 0. […] Dosing occurred every 2 d for 42 d. After administering the drug, mice were monitored for diarrhea, anorexia, lethargy, and allergic reactions (e.g., pruritus). The body weight of nude mice was measured every 2 days, and the long and short diameters of the tumors in nude mice were measured by using a vernier caliper, then the recording was finished.
Construction of the human osteosarcoma 143B tumor-bearing nude mouse model followed similar procedures, with identical dosing frequency but administration route changed to oral gavage. Specifically: When tumors reached 60-90 mm^3, mice were randomized into 4 groups (n=6). […]

J82 cells = assay: CCK-8 anti-proliferative assay, J82; type: cell-based, human; conditions: Homo sapiens, J82
How it was run: (§2)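 Cells seeded at 5,000/well and grown at 37° C., 5% CO2 to 70% confluency, then treated with compound at final 1, 2, 4, 6, 8, 12, 16, 24 and 30 μM in triplicate.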

UM-UC-3 cells [1] = assay: CCK-8 anti-proliferative assay, UM-UC-3; type: cell-based, human; conditions: Homo sapiens, UMUC3, co-incubated 48 h, read-out: Anti-proliferative activity (IC50 ± standard deviation) UM-UC-3
How it was run: as §2

T24 cells = assay: CCK-8 anti-proliferative assay, T24; type: cell-based, human; conditions: Homo sapiens, T-24; Table 10; co-incubated 48 h; read-out: Anti-proliferative activity (IC50 ± standard deviation) T24
How it was run: as §1

5637 cells = assay: CCK-8 anti-proliferative assay, 5637; type: cell-based, human; conditions: Homo sapiens
How it was run: as §2

BxPC-3 cells = assay: CCK-8 anti-proliferative assay, BxPC-3; type: cell-based, human; conditions: for IC50: Homo sapiens, BXPC-3, co-incubated 48 h, read-out: Anti-proliferative activity (IC50 ± standard deviation) BxPC-3
How it was run: as §1

PANC-1 cells = assay: CCK-8 anti-proliferative assay, PANC-1; type: cell-based, human; conditions: for IC50: Homo sapiens, PANC-1, co-incubated 48 h, read-out: Anti-proliferative activity (IC50 ± standard deviation) PANC-1
How it was run: as §1

HeLa cells = assay: CCK-8 anti-proliferative assay, HeLa; type: cell-based, human; conditions: for IC50: Homo sapiens, HeLa, Table 12, co-incubated 48 h, read-out: Anti-proliferative activity (IC50 ± standard deviation) HeLa
How it was run: as §2

MCF-7 cells = assay: CCK-8 anti-proliferative assay, MCF-7; type: cell-based, human; conditions: Homo sapiens, MCF7; Table 12; co-incubated 48 h; read-out: Anti-proliferative activity (IC50 ± standard deviation) MCF-7
How it was run: as §2

A549 cells = assay: CCK-8 anti-proliferative assay, A549; type: cell-based, human; conditions: for IC50: Homo sapiens, A549, Table 13, co-incubated 48 h, read-out: Anti-proliferative activity (IC50 ± standard deviation) A549
How it was run: as §2

Hep G2 cells = assay: CCK-8 anti-proliferative assay, Hep G2; type: cell-based, human; conditions: Homo sapiens, HepG2; Table 12; co-incubated 48 h; read-out: Anti-proliferative activity (IC50 ± standard deviation) Hep G2
How it was run: as §1

SK-OV-3 cells = assay: CCK-8 anti-proliferative assay, SK-OV-3; type: cell-based, human; conditions: Homo sapiens, SK-OV-3, co-incubated 48 h, read-out: Anti-proliferative activity (IC50 ± standard deviation) SK-OV-3
How it was run: as §2

[2] = test system: immortalized ureteral epithelial cells (SV-HUC-1); assay: CCK-8 anti-proliferative assay, normal cells SV-HUC-1; type: cell-based, human; conditions: Homo sapiens, SV-HUC1, normal cells, co-incubated 48 h, read-out: Anti-proliferative activity (IC50 ± standard deviation) SV-HUC-1
How it was run: as §2

[3] = test system: embryonic lung fibroblasts (WI-38); assay: CCK-8 anti-proliferative assay, normal cells WI-38; type: cell-based, human; conditions: Homo sapiens, WI-38, Table 13, co-incubated 48 h, read-out: Anti-proliferative activity (IC50 ± standard deviation) WI-38
How it was run: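 Absorbance at 450 nm after CCK-8 labelling (1–4 h, varying by cell line) gave inhibition relative to untreated control, from which IC50 values were derived. Compounds were applied at final concentrations of 1 to 30 μM in triplicate wells once cultures reached 70% confluency, with co-incubation for designated durations.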

UM-UC-3 cells [4] = assay: Cell cycle analysis (PI staining, flow cytometry), UM-UC-3; type: cell-based, human
Protocol: Tumor cells (T24, UM-UC-3, 143B, BxPC-3) in logarithmic growth phase were inoculated into 70 mm culture dishes. After 70% confluency was reached, medium was replaced and treated with: compound 8-1j, ferroptosis inducer Erastin, or cell cycle blocker paclitaxel (PTX) for a specified duration. Post-incubation, cells were trypsinized, collected, centrifuged, and washed 2 times with pre-cooled phosphate-buffered saline (PBS). Pre-cooled 75% ethanol was added dropwise during vortexing for fixation at −20° C. overnight. After centrifugation (10 min), supernatant was discarded. Cells were rewashed with PBS and centrifuged. Following kit instructions (Beyotime, C1052, China), 0.5 mL staining buffer, 25 μL PI (propidium iodide) stain (20×), and 10 μL RNase A (50×) were mixed per sample. Cells were resuspended in PI staining solution and incubated at 37° C. in dark for 30 min (gentle shaking every 10 min). Samples were filtered through 200-mesh filters, transferred into a flow tube, and analyzed via BD FACSVerse flow cytometer. All experiments were conducted in 3 repeats. Compounds 8-2h and 8-2j were evaluated identically.

[5] = background; cited from earlier work
[6] = test system: human pancreatic cancer BxPC-3; assay: BxPC-3 tumor-bearing nude mouse model; type: in vivo, nude mice
[7] = background; cited from earlier work; remark: listed apart in the source
[8] = Table 7, co-incubated 48 h, read-out: Anti-proliferative activity (IC50 ± standard deviation) 143B
[9] = Table 7, co-incubated 48 h, read-out: Anti-proliferative activity (IC50 ± standard deviation) MG-63
[10] = Table 10, co-incubated 48 h, read-out: Anti-proliferative activity (IC50 ± standard deviation) J82
[11] = Table 10, co-incubated 48 h, read-out: Anti-proliferative activity (IC50 ± standard deviation) 5637
[12] = Table 11, co-incubated 48 h, read-out: Anti-proliferative activity (IC50 ± standard deviation) 143B
[13] = Table 11, co-incubated 48 h, read-out: Anti-proliferative activity (IC50 ± standard deviation) MG-63

IC50 (T24 cells) | IC50 (BxPC-3 cells; Table 11) | IC50 (PANC-1 cells; Table 11) | IC50 (HeLa cells) | IC50 (MCF-7 cells) | IC50 (A549 cells) | IC50 (SK-OV-3 cells; Table 12) | SMILES | IC50 (J82 cells; [10]) | IC50 (UM-UC-3 cells [1]; Table 10) | IC50 (5637 cells; [11]) | IC50 (143B cells; [12]) | IC50 (MG-63 cells; [13]) | IC50 (Hep G2 cells) | IC50 ([2]; Table 13) | IC50 [3] | further results
– | – | – | – | – | – | – | N#CC1(c2ccc(NC(=O)c3cccnc3NCc3ccncc3)cc2)CCCC1 [Apat, apatinib mesylate, reference compound] | – | – | – | – | – | – | – | – | IC50 (143B cells; [8]): 28.4 ± 1.29 µM; IC50 (MG-63 cells; [9]): > 30 µM; Tumor inhibition (human osteosarcoma 143B): weak tumor inhibition activity
3.32 ± 0.15 µM | 6.15 ± 0.47 µM | 5.46 ± 0.31 µM | 3.81 ± 0.25 µM | 5.73 ± 0.59 µM | 3.09 ± 0.24 µM | 4.61 ± 0.38 µM | COc1cc2ncnc(NCc3cccc(NC(=O)Nc4ccc(C(C)(C)C)cc4)c3)c2cc1OCCCCCCN1CCC(CN2CCN(c3ccccn3)CC2)CC1 [Compound 8-2j, N-(3-(((7-methoxy-6-((6-(4-((4-(pyridin-2-yl)piperazin-1-yl)methyl)piperidin-1-yl)hexyl)oxy)quinazolin-4-yl)amino)methyl)phenyl)-N′-(4-tert-butylphenyl)urea] | 3.42 ± 0.25 µM | 4.66 ± 0.29 µM | 2.97 ± 0.23 µM | 5.59 ± 0.49 µM | 4.64 ± 0.32 µM | 3.81 ± 0.24 µM | 8.91 ± 0.72 µM | 8.79 ± 0.42 µM | IC50 (J82 cells; read-out: IC50 values against J82 cells): 3.42 ± 0.25 µM; IC50 (5637 cells; read-out: IC50 values against 5637 cells): 2.97 ± 0.23 µM; Sensitivity of BxPC-3 / anti-proliferative activity against BxPC-3, in words (BxPC-3 cells): heightened sensitivity; Sensitivity of PANC-1, in words (PANC-1 cells): heightened sensitivity; Sensitivity of HeLa, in words (HeLa cells): sensitive; Activity against A549 versus the 8-1 to 8-23 series, in words (A549 cells): significantly enhanced activity against A549; Effect of co-administration with PTX on cell cycle (UM-UC-3 cells [4]; UM-UC-3, with PTX): Synergistic effects; Cell cycle arrest phase (UM-UC-3 cells [4]; UM-UC-3 cells (FIG. 45)): arrest cell cycle at G2/M phase
4.07 ± 0.19 µM | 11 ± 0.85 µM | 7.36 ± 0.42 µM | 5.02 ± 0.49 µM | 5.71 ± 0.54 µM | 7.01 ± 0.62 µM | 6.23 ± 0.56 µM | COc1cc2ncnc(NCc3cccc(NC(=O)NCc4ccccc4)c3)c2cc1OCCCCCCN1CCC(CN2CCN(c3ccccn3)CC2)CC1 [Compound 8-2y, N-(3-(((7-methoxy-6-((6-(4-((4-(pyridin-2-yl)piperazin-1-yl)methyl)piperidin-1-yl)hexyl)oxy)quinazolin-4-yl)amino)methyl)phenyl)-N′-benzylurea] | 4.13 ± 0.32 µM | 3.92 ± 0.24 µM | 4.92 ± 0.31 µM | 6.74 ± 0.52 µM | 5.91 ± 0.46 µM | 5.92 ± 0.66 µM | 8.96 ± 0.67 µM | 9.89 ± 0.23 µM | –
5.33 ± 0.52 µM | 10.3 ± 0.93 µM | 14.9 ± 0.98 µM | 6.39 ± 0.68 µM | 6.32 ± 0.49 µM | 11.1 ± 0.83 µM | 8.69 ± 0.72 µM | COc1cc2ncnc(NCc3cccc(NC(=O)NC4CCCCC4)c3)c2cc1OCCCCCCN1CCC(CN2CCN(c3ccccn3)CC2)CC1 [Compound 8-2z, N-(3-(((7-methoxy-6-((6-(4-((4-(pyridin-2-yl)piperazin-1-yl)methyl)piperidin-1-yl)hexyl)oxy)quinazolin-4-yl)amino)methyl)phenyl)-N′-cyclohexylurea] | 3.93 ± 0.22 µM | 3.71 ± 0.19 µM | 3.96 ± 0.19 µM | 4.77 ± 0.26 µM | 4.05 ± 0.34 µM | 5.23 ± 0.52 µM | 8.02 ± 0.81 µM | 10.9 ± 0.59 µM | IC50 (143B cells; read-out: IC50 values, osteosarcoma cells 143B): < 5 µM; IC50 (MG-63 cells; read-out: IC50 values, osteosarcoma cells MG-63): < 5 µM
– | – | – | – | – | – | – | COc1cc(OC)cc(N(CCNC(C)C)c2ccc3ncc(-c4cnn(C)c4)nc3c2)c1 [Erda, erdafitinib] | – | – | – | – | – | – | – | – | Water solubility [5]: poor water solubility
– | – | – | – | – | – | – | Nc1ccn([C@@H]2O[C@H](CO)[C@@H](O)C2(F)F)c(=O)n1 [Gem, gemcitabine, reference compound] | – | – | – | – | – | – | – | – | Mice manifesting anorexia and emaciation after 4 doses ([6]; 24 mg/kg oral gavage): 50%; Nude mice that died within 16 d ([6]; 24 mg/kg oral gavage, n=6): 3 of 6; Toxicity observations ([6]; oral gavage, gemcitabine 24 mg/kg, 8-2h 12, 24, 36 mg/kg): significant gastrointestinal reactions
– | – | – | – | – | – | – | CNC(=O)c1cc(Oc2ccc(NC(=O)Nc3ccc(Cl)c(C(F)(F)F)c3)cc2)ccn1 [Sora, sorafenib, reference compound] | – | – | – | – | – | – | – | – | IC50 (UM-UC-3 cells [1]; Table 6): 14.3 ± 1.51 µM; IC50 (143B cells; [8]): 22.7 ± 1.59 µM; IC50 (MG-63 cells; [9]): 27.2 ± 1.89 µM; Sensitivity of BxPC-3 / anti-proliferative activity against BxPC-3, in words (BxPC-3 cells): weak anti-proliferative activity; IC50 (BxPC-3 cells; Table 7): 13.4 ± 1.27 µM; IC50 (PANC-1 cells; Table 7): 8.13 ± 0.56 µM; IC50 (SK-OV-3 cells; Table 9): 13.8 ± 0.78 µM; IC50 ([2]; Table 9): 10.8 ± 0.54 µM; Water solubility [5]: poor aqueous solubility; Elimination/metabolism [7]: rapid elimination/metabolism; Oral bioavailability [7]: low oral bioavailability
